{"source": "ChEMBL document CHEMBL3885861", "about": "“Open TG-GATES”", "organism": "Rattus norvegicus", "experiment": "Open TG-GATES - Regimen: Single", "assay_type": "toxicity, organism-based, Sprague-Dawley", "design": "regimen Single, gender Male, age 6 weeks", "conditions": "in vivo, po, 20 mg/kg, route gavage, dose level Middle; for APTT / Bas / Eos / Fbg / Hb / Ht / Lym / MCH / MCHC / MCV / Mono / Neu / PT / Plat / RBC / Ret / WBC: tissue Blood; for KIDNEY_L / KIDNEY_R / KIDNEY_TOTAL: tissue Kidney; for LIVER: tissue Liver; for A/G / ALP / ALT / AST / BUN / CRE / Ca / Cl / DBIL / GLC / IP / K / LDH / Na / PL / RALB / TBIL / TC / TG / TP / gamma-GTP: tissue Plasma", "data": [{"smiles": "CC(C)NNC(=O)c1ccncc1", "note": "[IPRONIAZID]", "values": [{"measurement": "TERMINAL_BW", "setting": "3 h", "value": 203.6, "unit": "g"}, {"measurement": "APTT", "setting": "3 h", "value": 21.7, "unit": "s"}, {"measurement": "Bas", "setting": "3 h", "value": 0, "unit": "%"}, {"measurement": "Eos", "setting": "3 h", "value": 1, "unit": "%"}, {"measurement": "Fbg", "setting": "3 h", "value": 321.4, "unit": "mg/dL"}, {"measurement": "Hb", "setting": "3 h", "value": 12.8, "unit": "g/dL"}, {"measurement": "Ht", "setting": "3 h", "value": 37.7, "unit": "%"}, {"measurement": "Lym", "setting": "3 h", "value": 78.8, "unit": "%"}, {"measurement": "MCH", "setting": "3 h", "value": 21.6, "unit": "pg"}, {"measurement": "MCHC", "setting": "3 h", "value": 34.1, "unit": "%"}, {"measurement": "MCV", "setting": "3 h", "value": 63.4, "unit": "fL"}, {"measurement": "Mono", "setting": "3 h", "value": 2, "unit": "%"}, {"measurement": "Neu", "setting": "3 h", "value": 17.8, "unit": "%"}, {"measurement": "PT", "setting": "3 h", "value": 16.3, "unit": "s"}, {"measurement": "Plat", "setting": "3 h", "value": 114.7, "unit": "x10_4/uL"}, {"measurement": "RBC", "setting": "3 h", "value": 594.6, "unit": "x10_4/ul"}, {"measurement": "Ret", "setting": "3 h", "value": 8.2, "unit": "%"}, {"measurement": "WBC", "setting": "3 h", "value": 62.7, "unit": "x10_2/uL"}, {"measurement": "KIDNEY_L", "setting": "3 h", "value": 1, "unit": "g"}, {"measurement": "KIDNEY_R", "setting": "3 h", "value": 1, "unit": "g"}, {"measurement": "KIDNEY_TOTAL", "setting": "3 h", "value": 1.9, "unit": "g"}, {"measurement": "LIVER", "setting": "3 h", "value": 9.6, "unit": "g"}, {"measurement": "A/G", "setting": "3 h", "value": 1.3}, {"measurement": "ALP", "setting": "3 h", "value": 1741.8, "unit": "IU/L"}, {"measurement": "ALT", "setting": "3 h", "value": 35.4, "unit": "IU/L"}, {"measurement": "AST", "setting": "3 h", "value": 73.2, "unit": "IU/L"}, {"measurement": "BUN", "setting": "3 h", "value": 12.4, "unit": "mg/dL"}, {"measurement": "CRE", "setting": "3 h", "value": 0.2, "unit": "mg/dL"}, {"measurement": "Ca", "setting": "3 h", "value": 10.7, "unit": "mg/dL"}, {"measurement": "Cl", "setting": "3 h", "value": 107.2, "unit": "meq/L"}, {"measurement": "DBIL", "setting": "3 h", "value": 0.006, "unit": "mg/dL"}, {"measurement": "GLC", "setting": "3 h", "value": 182.8, "unit": "mg/dL"}, {"measurement": "IP", "setting": "3 h", "value": 8.8, "unit": "mg/dL"}, {"measurement": "K", "setting": "3 h", "value": 4, "unit": "meq/L"}, {"measurement": "LDH", "setting": "3 h", "value": 229.4, "unit": "IU/L"}, {"measurement": "Na", "setting": "3 h", "value": 142, "unit": "meq/L"}, {"measurement": "PL", "setting": "3 h", "value": 143.6, "unit": "mg/dL"}, {"measurement": "RALB", "setting": "3 h", "value": 3.2, "unit": "g/dL"}, {"measurement": "TBIL", "setting": "3 h", "value": 0.01, "unit": "mg/dL"}, {"measurement": "TC", "setting": "3 h", "value": 78.8, "unit": "mg/dL"}, {"measurement": "TG", "setting": "3 h", "value": 58.8, "unit": "mg/dL"}, {"measurement": "TP", "setting": "3 h", "value": 5.7, "unit": "g/dL"}, {"measurement": "gamma-GTP", "setting": "3 h", "value": 1.2, "unit": "IU/L"}, {"measurement": "TERMINAL_BW", "setting": "6 h", "value": 213.3, "unit": "g"}, {"measurement": "APTT", "setting": "6 h", "value": 23.3, "unit": "s"}, {"measurement": "Bas", "setting": "6 h", "value": 0, "unit": "%"}, {"measurement": "Eos", "setting": "6 h", "value": 0.6, "unit": "%"}, {"measurement": "Fbg", "setting": "6 h", "value": 324.6, "unit": "mg/dL"}, {"measurement": "Hb", "setting": "6 h", "value": 13.2, "unit": "g/dL"}, {"measurement": "Ht", "setting": "6 h", "value": 38.9, "unit": "%"}, {"measurement": "Lym", "setting": "6 h", "value": 72.6, "unit": "%"}, {"measurement": "MCH", "setting": "6 h", "value": 21.5, "unit": "pg"}, {"measurement": "MCHC", "setting": "6 h", "value": 34.1, "unit": "%"}, {"measurement": "MCV", "setting": "6 h", "value": 63.1, "unit": "fL"}, {"measurement": "Mono", "setting": "6 h", "value": 2.6, "unit": "%"}, {"measurement": "Neu", "setting": "6 h", "value": 23.6, "unit": "%"}, {"measurement": "PT", "setting": "6 h", "value": 15.6, "unit": "s"}, {"measurement": "Plat", "setting": "6 h", "value": 118.4, "unit": "x10_4/uL"}, {"measurement": "RBC", "setting": "6 h", "value": 615.8, "unit": "x10_4/ul"}, {"measurement": "Ret", "setting": "6 h", "value": 8, "unit": "%"}, {"measurement": "WBC", "setting": "6 h", "value": 79, "unit": "x10_2/uL"}, {"measurement": "KIDNEY_L", "setting": "6 h", "value": 1, "unit": "g"}, {"measurement": "KIDNEY_R", "setting": "6 h", "value": 1, "unit": "g"}, {"measurement": "KIDNEY_TOTAL", "setting": "6 h", "value": 1.9, "unit": "g"}, {"measurement": "LIVER", "setting": "6 h", "value": 9.4, "unit": "g"}, {"measurement": "A/G", "setting": "6 h", "value": 1.2}, {"measurement": "ALP", "setting": "6 h", "value": 1382.2, "unit": "IU/L"}, {"measurement": "ALT", "setting": "6 h", "value": 34.4, "unit": "IU/L"}, {"measurement": "AST", "setting": "6 h", "value": 72.8, "unit": "IU/L"}, {"measurement": "BUN", "setting": "6 h", "value": 10.4, "unit": "mg/dL"}, {"measurement": "CRE", "setting": "6 h", "value": 0.1, "unit": "mg/dL"}, {"measurement": "Ca", "setting": "6 h", "value": 10.6, "unit": "mg/dL"}, {"measurement": "Cl", "setting": "6 h", "value": 107, "unit": "meq/L"}, {"measurement": "DBIL", "setting": "6 h", "value": 0.002, "unit": "mg/dL"}, {"measurement": "GLC", "setting": "6 h", "value": 178.8, "unit": "mg/dL"}, {"measurement": "IP", "setting": "6 h", "value": 10.3, "unit": "mg/dL"}, {"measurement": "K", "setting": "6 h", "value": 4.3, "unit": "meq/L"}, {"measurement": "LDH", "setting": "6 h", "value": 212.6, "unit": "IU/L"}, {"measurement": "Na", "setting": "6 h", "value": 142, "unit": "meq/L"}, {"measurement": "PL", "setting": "6 h", "value": 154.6, "unit": "mg/dL"}, {"measurement": "RALB", "setting": "6 h", "value": 2.9, "unit": "g/dL"}, {"measurement": "TBIL", "setting": "6 h", "value": 0.008, "unit": "mg/dL"}, {"measurement": "TC", "setting": "6 h", "value": 86.4, "unit": "mg/dL"}, {"measurement": "TG", "setting": "6 h", "value": 68.2, "unit": "mg/dL"}, {"measurement": "TP", "setting": "6 h", "value": 5.4, "unit": "g/dL"}, {"measurement": "gamma-GTP", "setting": "6 h", "value": 1.2, "unit": "IU/L"}]}]}
